Results from publication PMC5785997, “2-Phenylquinazolinones as dual-activity tankyrase-kinase inhibitors” (Scientific Reports, 2018).
Where two headings read alike, the source gives them in different places.

Legend:
Type in all cases: biochemical
TNKS2 = TNKS2 (Homo sapiens, UniProt Q9H2K2); assay: NAD+ quantification activity assay, TNKS2
Method: The activity assay used to measure the potency of the compounds against TNKS2 is based on the quantification of NAD^+[38]. The reactions were carried out in 96-well plate (Greiner bio-one, U-shaped) and the conditions were the same as reported earlier (Table S5)[24].
The compounds were stored in 100% DMSO at −20 °C. All the compounds were diluted in the TNKS2 assay buffer (50 mM Bis-Tris Propane, 0.5 mM TCEP, 0.01% Triton-100x). Control reactions were used to exclude the effect of compound fluorescence and quenching from the calculations. […] The pIC50 values were calculated and fitted with nonlinear regression using 4-parameters with GraphPad Prism (version 5.0 for windows).
Protein (nM) NAD+ (nM) Incubation Buffer
Kinase [ATP] Substrate Incubation Reaction buffer

Akt = assay: Kinase functional assay (mobility shift), Akt; settings: for Akt inhibition-%: Table 1; for IC50: dose response
p38α = p38α (Homo sapiens, UniProt Q16539); assay: Kinase functional assay (mobility shift), p38α; settings: for inhibition at 1 µM / inhibition at 10 µM: read-out: p38α (% Inhib.); for p38 inhibition-%: Table 1
Chain of p38α (Q16539 whole entry): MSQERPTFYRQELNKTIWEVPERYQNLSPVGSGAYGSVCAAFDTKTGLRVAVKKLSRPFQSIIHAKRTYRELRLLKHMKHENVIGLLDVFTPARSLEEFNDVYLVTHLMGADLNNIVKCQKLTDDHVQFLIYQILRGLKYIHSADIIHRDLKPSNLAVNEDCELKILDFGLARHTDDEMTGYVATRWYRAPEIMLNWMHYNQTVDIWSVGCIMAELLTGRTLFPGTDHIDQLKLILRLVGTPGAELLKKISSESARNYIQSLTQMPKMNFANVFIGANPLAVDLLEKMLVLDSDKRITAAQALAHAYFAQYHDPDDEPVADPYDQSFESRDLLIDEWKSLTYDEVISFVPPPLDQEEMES

human CK2α-1 = target: T1, human CK2α-1 (Homo sapiens, UniProt P68400); assay: ADP-Glo kinase assay, CK2; settings: for inhibition at 1 µM: 1 µM compound, Table S3; for inhibition at 1 µM / inhibition at 10 µM: read-out: CK2 (% Inhib.); for inhibition at 10 µM / CK2 inhibition-%: 10 µM compound; for inhibition at 10 µM: Table S4; for CK2 inhibition-%: Table 1
T1 construct: purchased Promega V4,482
T1 sequence (P68400 whole entry): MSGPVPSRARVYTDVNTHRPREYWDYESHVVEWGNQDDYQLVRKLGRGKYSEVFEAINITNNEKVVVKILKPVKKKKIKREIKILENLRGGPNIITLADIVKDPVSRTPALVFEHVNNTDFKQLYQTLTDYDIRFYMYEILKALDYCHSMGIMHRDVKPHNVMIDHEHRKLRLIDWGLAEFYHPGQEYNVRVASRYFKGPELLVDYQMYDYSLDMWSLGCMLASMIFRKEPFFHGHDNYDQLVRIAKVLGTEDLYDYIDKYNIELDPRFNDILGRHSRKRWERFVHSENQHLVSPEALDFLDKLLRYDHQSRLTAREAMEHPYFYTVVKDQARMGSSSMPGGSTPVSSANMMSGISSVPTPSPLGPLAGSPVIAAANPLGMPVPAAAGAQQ
Method: The kinase functional assays were performed using a combination of kinase and 1.5 μM peptide substrate in the presence of ATP. The reaction mixture was analyzed on the Caliper LabChip 3,000 (Caliper, Hopkinton, MA) by the electrophoretic mobility shift of the fluorescent substrate and phosphorylated product. For the inhibition of human CK2α-1, the experiments were carried out with ADP-Glo kinase Assay Kit (Promega V9,101). Assays are described in detail in the Supplementary Methods and Table S6. […]
Dose-response curves were generated to determine the concentration required to inhibit 50% of kinase activity (IC50). Staurosporine (Invitrogen BP2,451) was included as a positive control of each enzymatic assay. The profiling of the kinases was done at 1 and at 10 μM of the compound.
For the inhibition of human CK2α-1, the experiments were carried out in a white 384-microplate low flange (Corning 3,572) with ADP-Glo kinase Assay Kit (Promega V9101) and CK2α-1 Kinase Enzyme System (Promega V4,482). The test compounds and standard staurosporine (Invitrogen BP2451), 25 ng/well CK2α-1 kinase and 50 µM ATP were added in a final volume of 10 µl/well using reaction buffer supplied by kit as assay buffer. The reaction mixture was incubated in gentle shaking for 60 minutes at room temperature. After the incubation 10 µl of ADP-Glo reagent was added and incubated in gentle shaking for 40 minutes at room temperature. Finally 20 µl of Kinase Detection Reagent was added and the plate was incubated on a shaker for 30 minutes at room […]
temperature. […]

GSK3β = GSK3β (Homo sapiens, UniProt P49841); assay: Kinase functional assay (mobility shift), GSK3β; settings: for inhibition at 1 µM: 1 µM compound, Table S3; for inhibition at 1 µM / inhibition at 10 µM: read-out: GSK3β (% Inhib.); for inhibition at 10 µM / GSK3β inhibition-%: 10 µM compound; for inhibition at 10 µM: Table S4; for GSK3β inhibition-%: Table 1
Chain of GSK3β (P49841 whole entry, species assumed): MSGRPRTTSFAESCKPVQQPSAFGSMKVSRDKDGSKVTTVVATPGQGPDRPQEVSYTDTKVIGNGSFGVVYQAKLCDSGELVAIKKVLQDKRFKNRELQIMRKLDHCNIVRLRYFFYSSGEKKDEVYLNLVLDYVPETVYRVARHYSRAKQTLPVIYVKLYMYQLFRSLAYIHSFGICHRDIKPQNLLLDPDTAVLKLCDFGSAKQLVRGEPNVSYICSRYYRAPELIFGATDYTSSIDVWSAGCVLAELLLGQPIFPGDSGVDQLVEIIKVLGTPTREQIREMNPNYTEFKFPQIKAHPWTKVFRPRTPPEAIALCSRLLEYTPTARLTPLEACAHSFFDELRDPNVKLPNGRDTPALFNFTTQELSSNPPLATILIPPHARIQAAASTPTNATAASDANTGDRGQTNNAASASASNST

ERK2 = ERK2 (Homo sapiens, UniProt P28482); assay: Kinase functional assay (mobility shift), ERK2 (p42); settings: for inhibition at 1 µM: 1 µM compound, Table S3; for inhibition at 1 µM / inhibition at 10 µM: read-out: ERK2 (% Inhib.); for inhibition at 10 µM / p42 inhibition-%: 10 µM compound; for inhibition at 10 µM: Table S4; for p42 inhibition-%: Table 1
Chain of ERK2 (P28482 whole entry, species assumed): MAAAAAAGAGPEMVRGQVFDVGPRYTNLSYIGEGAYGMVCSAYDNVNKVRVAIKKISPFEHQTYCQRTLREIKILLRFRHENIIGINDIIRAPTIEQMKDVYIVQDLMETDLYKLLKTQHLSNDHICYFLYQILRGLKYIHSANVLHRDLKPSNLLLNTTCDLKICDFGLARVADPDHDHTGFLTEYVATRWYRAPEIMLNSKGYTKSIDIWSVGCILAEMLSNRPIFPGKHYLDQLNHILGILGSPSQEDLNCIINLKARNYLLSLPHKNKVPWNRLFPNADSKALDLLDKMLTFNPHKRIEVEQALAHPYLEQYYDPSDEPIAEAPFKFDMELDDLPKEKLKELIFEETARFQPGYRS

CDK9 = CDK9 (Homo sapiens, UniProt P50750); assay: Kinase functional assay (mobility shift), CDK9; settings: for inhibition at 1 µM: 1 µM compound, Table S3; for inhibition at 1 µM / inhibition at 10 µM: read-out: CDK9 (% Inhib.); for inhibition at 10 µM / CDK9 inhibition-%: 10 µM compound; for inhibition at 10 µM: Table S4; for CDK9 inhibition-%: Table 1
Chain of CDK9 (P50750 whole entry, species assumed): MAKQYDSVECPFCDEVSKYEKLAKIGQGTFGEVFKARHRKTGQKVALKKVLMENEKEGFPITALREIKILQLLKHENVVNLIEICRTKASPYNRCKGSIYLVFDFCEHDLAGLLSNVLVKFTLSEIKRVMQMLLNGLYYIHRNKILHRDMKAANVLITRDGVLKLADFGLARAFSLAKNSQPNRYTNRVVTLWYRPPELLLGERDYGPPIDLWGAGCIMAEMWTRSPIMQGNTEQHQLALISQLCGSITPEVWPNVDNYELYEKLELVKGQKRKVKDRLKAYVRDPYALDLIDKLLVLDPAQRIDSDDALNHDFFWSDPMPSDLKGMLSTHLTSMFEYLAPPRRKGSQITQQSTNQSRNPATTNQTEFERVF
Chain of CDK9 (O60563 whole entry partner, species assumed): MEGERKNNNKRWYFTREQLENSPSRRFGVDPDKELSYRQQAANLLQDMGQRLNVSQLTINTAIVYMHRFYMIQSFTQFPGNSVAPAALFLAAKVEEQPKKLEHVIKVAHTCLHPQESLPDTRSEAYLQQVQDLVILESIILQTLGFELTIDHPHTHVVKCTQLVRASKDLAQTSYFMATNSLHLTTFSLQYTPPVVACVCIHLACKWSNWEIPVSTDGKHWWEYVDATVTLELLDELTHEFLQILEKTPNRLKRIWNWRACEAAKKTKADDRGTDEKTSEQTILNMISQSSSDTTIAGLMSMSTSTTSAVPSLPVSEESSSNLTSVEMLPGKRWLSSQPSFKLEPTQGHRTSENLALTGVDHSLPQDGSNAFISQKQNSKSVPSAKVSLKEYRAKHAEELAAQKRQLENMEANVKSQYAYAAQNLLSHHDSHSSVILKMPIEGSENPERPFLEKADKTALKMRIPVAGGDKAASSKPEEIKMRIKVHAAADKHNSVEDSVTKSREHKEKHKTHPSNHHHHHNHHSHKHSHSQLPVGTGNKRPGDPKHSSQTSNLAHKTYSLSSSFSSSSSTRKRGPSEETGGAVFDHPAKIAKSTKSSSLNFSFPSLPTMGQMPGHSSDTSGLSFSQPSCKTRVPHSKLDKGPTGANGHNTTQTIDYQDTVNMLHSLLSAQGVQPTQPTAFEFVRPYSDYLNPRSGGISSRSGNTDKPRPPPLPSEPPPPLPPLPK

[1] = Table 1, read-out: TNKS2 IC50 (shown for comparison)
[2] = dose response, read-out: CDK9 IC50

Chain of TNKS2 (Q9H2K2 959-1164): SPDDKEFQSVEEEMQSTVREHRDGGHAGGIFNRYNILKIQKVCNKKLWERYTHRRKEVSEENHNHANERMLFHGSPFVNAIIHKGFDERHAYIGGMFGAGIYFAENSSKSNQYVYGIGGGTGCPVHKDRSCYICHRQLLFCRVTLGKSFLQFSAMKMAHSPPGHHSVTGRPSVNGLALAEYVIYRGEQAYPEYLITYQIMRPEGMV

Nc1ccccc1-c1nc2ccccc2c(=O)[nH]1 [Compound 14] showed an IC50 (TNKS2; TNKS2 IC50, NAD+ 500 nM) of 700 nM.
For Oc1nc(-c2ccc(C(F)(F)F)cc2)nc2c1CSCC2 [Compound 1, XAV939, reference compound], the “AKT (% Inhib.)” value (Akt; 1 µM compound, Table S3) was 1 ± 1%, the “AKT (% Inhib.)” value (Akt; 10 µM compound, Table S4) was 7 ± 4% and the inhibition at 1 µM (p38α) was 2 ± 2%. It also gave an inhibition at 10 µM (p38α) of 3 ± 2%, an inhibition at 1 µM (human CK2α-1) of 2 ± 1% and an inhibition at 10 µM (human CK2α-1) of 1 ± 1%. For the same compound, the inhibition at 1 µM (GSK3β) was 1 ± 1%, the inhibition at 10 µM (GSK3β) was 7 ± 1% and the inhibition at 1 µM (ERK2) was 2 ± 2%. It also gave an inhibition at 10 µM (ERK2) of 2 ± 1%, an inhibition at 1 µM (CDK9) of 11 ± 3% and an inhibition at 10 µM (CDK9) of 12 ± 1%.
For Oc1nc(-c2ccccc2F)nc2ccccc12 [Compound 26], the IC50 (TNKS2; TNKS2 IC50, NAD+ 500 nM) was 4770 nM.
In the case of COc1ccccc1-c1nc(O)c2ccccc2n1 [Compound 18], the IC50 (TNKS2; TNKS2 IC50, NAD+ 500 nM) is reported as 10000 nM.
Compound CN(CCO)c1ccc(-c2nc3cc(Cl)ccc3c(=O)[nH]2)cc1 [C00004] has an IC50 (TNKS2; [1]) of 660 nM and an IC50 (CDK9; [2]) of 6200 nM.
Work on Nc1ccc(-c2nc3cc(Cl)ccc3c(=O)[nH]2)cc1 [C00006] yielded a p38 inhibition-% (p38α; 10 µM compound) of 45%, a CK2 inhibition-% (human CK2α-1) of 2% and a GSK3β inhibition-% (GSK3β) of 41%. It also gave a p42 inhibition-% (ERK2) of 51%, an IC50 (TNKS2; [1]) of 1050 nM and an IC50 (CDK9; [2]) of 3400 nM.
For CC(C)Oc1ccc(-c2nc3ccccc3c(=O)[nH]2)cc1 [Compound 34], the IC50 (TNKS2; TNKS2 IC50, NAD+ 500 nM) was 12 nM.
O=C(O)c1ccc2c(=O)[nH]c(-c3cccc(C(F)(F)F)c3)nc2c1 [Compound 39] showed an IC50 (TNKS2; TNKS2 IC50, NAD+ 500 nM) of 542000 nM.
Work on O=c1[nH]c(-c2ccccn2)nc2ccccc12 [Compound 11] yielded an IC50 (TNKS2; TNKS2 IC50, as quoted in text) of 2400 nM.
Compound CCN(CC)c1ccc(-c2nc3ccccc3c(=O)[nH]2)cc1 [C00003] has an Akt inhibition-% (Akt; 10 µM compound) of 48%, a p38 inhibition-% (p38α; 10 µM compound) of 20% and a CK2 inhibition-% (human CK2α-1) of 2%. The GSK3β inhibition-% (GSK3β) was 4%, the p42 inhibition-% (ERK2) was 18% and the IC50 (TNKS2; [1]) was 10 nM. For the same compound, the CDK9 inhibition-% (CDK9) was 16%.
Work on CCOc1ccc(-c2nc3ccccc3c(=O)[nH]2)cc1 [Compound 35] yielded an IC50 (TNKS2; TNKS2 IC50, NAD+ 500 nM) of 35 nM.
C[C@]1(c2ccc(-c3nc4ccccc4c(=O)[nH]3)cc2)NC(=O)NC1=O [(+)-8] showed an IC50 (TNKS2; TNKS2 IC50, NAD+ 500 nM) of 6.7 nM.
Nc1ccc(-c2nc3cc(Cl)ccc3c(=O)[nH]2)cc1 [Compound 42] was tested, and the “AKT (% Inhib.)” value (Akt; 10 µM compound, Table S4) was 89 ± 1%, the IC50 (Akt) was 1600 nM and the inhibition at 1 µM (p38α; 1 µM compound, Table S3) was 5 ± 1%. It also gave an inhibition at 10 µM (p38α; 10 µM compound, Table S4) of 45 ± 1%, an inhibition at 1 µM (human CK2α-1) of 1 ± 1% and an inhibition at 10 µM (human CK2α-1) of 2 ± 2%. It also gave an inhibition at 1 µM (GSK3β) of 4 ± 1%, an inhibition at 10 µM (GSK3β) of 41 ± 1% and an inhibition at 1 µM (ERK2) of 14 ± 1%. For the same compound, the inhibition at 10 µM (ERK2) was 51 ± 1%, the IC50 (TNKS2; TNKS2 IC50, NAD+ 500 nM) was 1050 nM and the IC50 (TNKS2; TNKS2 IC50, as quoted in text) was 1100 nM. It also gave an inhibition at 1 µM (CDK9) of 17 ± 5%, an inhibition at 10 µM (CDK9) of 78 ± 2% and an IC50 (CDK9; [2]) of 3400 nM.
Work on O=c1[nH]c(-c2ccc3[nH]ncc3c2)nc2ccccc12 [C00001] yielded an Akt inhibition-% (Akt; 10 µM compound) of 1%, a p38 inhibition-% (p38α; 10 µM compound) of 3% and a CK2 inhibition-% (human CK2α-1) of 12%. The GSK3β inhibition-% (GSK3β) was 57%, the p42 inhibition-% (ERK2) was 14% and the IC50 (TNKS2; [1]) was 400 nM. For the same compound, the CDK9 inhibition-% (CDK9) was 34%.
Nc1ccc(-c2nc3ccccc3c(=O)[nH]2)cc1 [C00007] was tested, and the IC50 (Akt) was 13800 nM and the IC50 (CDK9; compound does not completely inhibit the enzyme at concentrations used, IC50 extrapolated by the analysis software, read-out: CDK9 IC50 (extrapolated)) was 28300 nM.
CCCOc1ccc(-c2nc3ccccc3c(=O)[nH]2)cc1 [Compound 36] was tested, and the IC50 (TNKS2; TNKS2 IC50, NAD+ 500 nM) was 22 nM.
